From ChEMBL document CHEMBL3861948 (Medchemcomm, 2016)

Biological target: Mitogen-activated protein kinase 14 (Homo sapiens, UniProt Q16539)
Assay: Inhibition of p38alpha in human THP1 cells assessed as suppression of LPS-induced TNFalpha secretion preincubated for 30 mins followed by LPS challenge measured after 2 hrs
Format: cell-based, THP-1

Chain of Mitogen-activated protein kinase 14 (Q16539 whole entry): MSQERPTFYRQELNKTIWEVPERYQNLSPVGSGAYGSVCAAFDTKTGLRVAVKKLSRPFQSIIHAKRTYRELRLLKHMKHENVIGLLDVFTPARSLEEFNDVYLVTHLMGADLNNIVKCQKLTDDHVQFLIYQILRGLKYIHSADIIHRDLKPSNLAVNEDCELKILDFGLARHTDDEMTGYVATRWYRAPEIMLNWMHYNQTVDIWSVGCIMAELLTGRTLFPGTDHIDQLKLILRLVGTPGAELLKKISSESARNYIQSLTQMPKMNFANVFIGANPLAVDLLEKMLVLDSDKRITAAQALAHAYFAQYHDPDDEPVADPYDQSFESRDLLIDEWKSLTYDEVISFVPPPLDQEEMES

IC50 [nM] | Compound
46 | CNC(=O)[C@H](Cc1cccc(C(F)(F)F)c1)NC(=O)c1ccc(CNC(=O)c2cnn(-c3ccccc3)c2N)cc1
44 | NC(=O)[C@H](CCC1CCCCC1)NC(=O)[C@H]1CC[C@H](CNC(=O)c2cnn(-c3ccccc3)c2N)CC1
